Results: US20060073516A1, “Novel screening method” (priority 2002, published 2006)

What was measured:
[1] = molecular target: T1, TGR7 (Homo sapiens, UniProt Q8TDS7); test: Suppression of forskolin-increased intracellular cAMP level in TGR7-expressed CHO cells; format: cell-based; set-up: expressed in transfected cells; host or cells: CHO cells; conditions: 1 μM forskolin, ligand 1.0×10^−3 M-3.0×10^−7 M, compared to mock CHO cells (FIG. 6, FIG. 7)
Method: (§1) The TGR7- and rCB7T084-expressed CHO cells were washed with assay medium (HBSS (GibcoBRL) supplemented with 0.1% bovine serum albumin and 0.2 mM IBMX). Thereafter, the cells were incubated at 37° C. for 30 minutes under 5% CO2 conditions. β-Alanine (1.0×10^−3 M-3.0×10^−7 M) and L-carnosine (1.0×10^−3 M-3.0×10^−7 M) diluted with the assay medium in various concentrations were added and forskokin was then added thereto in 1 μM. The cells were incubated at 37° C. for 30 minutes under 5% CO2 conditions. The culture supernatant was discarded and the intracellular cAMP level was determined on a plate reader (ARVO multi-label counter, Wallac, Inc.), following the protocol of cAMP Screen Kit (Applied Biosystems, Inc.).

[2] = molecular target: T2, rCB7T084 (Rattus norvegicus, UniProt Q7TN41, R55S); test: Suppression of forskolin-increased intracellular cAMP level in rCB7T084-expressed CHO cells; format: cell-based; conditions: 1 μM forskolin, ligand 1.0×10^−3 M-3.0×10^−7 M, compared to mock CHO cells (FIG. 6, FIG. 7)
T2 construct: expressed in transfected cells; host or cells: CHO cells
T2 sequence (Q7TN41 1-319 R55S): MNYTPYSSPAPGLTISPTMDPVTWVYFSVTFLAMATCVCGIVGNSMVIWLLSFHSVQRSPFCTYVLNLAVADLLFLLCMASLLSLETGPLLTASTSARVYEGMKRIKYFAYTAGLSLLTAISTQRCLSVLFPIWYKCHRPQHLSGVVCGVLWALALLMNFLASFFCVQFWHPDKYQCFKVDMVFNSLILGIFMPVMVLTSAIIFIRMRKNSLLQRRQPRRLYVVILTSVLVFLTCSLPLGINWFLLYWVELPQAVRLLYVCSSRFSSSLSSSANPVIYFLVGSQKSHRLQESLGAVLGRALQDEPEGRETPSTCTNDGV
Method: as §1

[3] = molecular target: rat rCB7T084 (Rattus norvegicus, UniProt Q7TN41, R55S); conditions: β-alanine added in 10^−4 M to 10^−5 M; CHO-K1 cells expressing rat rCB7T084; FLIPR, Fluo-3AM (FIG. 2)
Method: (§2) The CHO-K1 cell line was cultured in HAM F-12 medium (Invitrogen) containing 10% fetal calf serum (Invitrogen), unless otherwise indicated. A day before transfection, 4.5×10^5 cells per 10 cm^2 were plated, followed by incubation in a CO2 incubator adjusted to a concentration of 5% CO2 at 37° C. for at least 15 hours. Using Lipofectamine reagent (Invitrogen), transfection was carried out by modifications of the method attached to the reagent. When a 6-well plate was used for the incubation, the following procedures were performed. First, 2 tubes each having a 1.5 ml volume were prepared and 100 μl each of Opti-MEM medium (Invitrogen) was dispensed in each tube. Next, 1 μg of the expression vector was charged in one tube and in another tube, 6 μl of Lipofectamine reagent was charged, which were mixed together. The mixture was settled for 20 minutes at room temperature. To the solution, 800 μl of Opti-MEM medium was added and the resulting solution mixture for transfection was added to the CHO-K1 cells, which had been previously washed with Opti-MEM medium. Then, the cells were incubated in a CO2 incubator for 6 hours. After the incubation, the cells were rinsed with PBS (Invitrogen), then scraped using 0.05% trypsin-EDTA solution (Invitrogen) and recovered by centrifugal operation. The cells obtained were counted and diluted to 5×10^4 cells per 200 μl of the medium. The dilution was dispensed onto a Black walled 96-well plate (Costar) in 200 μl each per well, followed by incubation overnight in a CO2 incubator. Various test samples were added to the CHO-K1 cells in which the receptor was transiently expressed by the transfection operation described above, whereby changes in the intracellular calcium ion level were determined using FLIPR (Molecular Device). In order to determine the changes in the intracellular calcium ion level on FLIPR, the cells were pre-teated by the following procedures. […] Following the pre-treatment above, changes in intracellular calcium level after addition of various test samples were measured on FLIPR.

[4] = molecular target: T1, TGR7; conditions: β-alanine added in 10^−4 M to 10^−5 M; CHO-K1 cells expressing human TGR7; FLIPR, Fluo-3AM (FIG. 1)
Method: as §2

[5] = system: CHO-K1 cells into which the expression vector alone was introduced; conditions: control CHO-K1 cells, expression vector alone (no insert); FLIPR (FIG. 3)
Method: as §2

T1 sequence (Q8TDS7 whole entry): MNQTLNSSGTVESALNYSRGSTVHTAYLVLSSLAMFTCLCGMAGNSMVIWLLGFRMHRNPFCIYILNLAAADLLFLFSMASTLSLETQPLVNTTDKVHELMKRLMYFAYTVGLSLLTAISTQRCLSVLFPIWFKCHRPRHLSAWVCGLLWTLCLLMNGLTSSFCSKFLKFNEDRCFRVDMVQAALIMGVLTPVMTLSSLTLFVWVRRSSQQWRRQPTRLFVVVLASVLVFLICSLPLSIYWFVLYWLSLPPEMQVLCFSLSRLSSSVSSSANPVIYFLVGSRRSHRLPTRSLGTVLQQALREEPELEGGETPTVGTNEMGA

response (increase in the intracellular calcium level) [3] | response (increase in the intracellular calcium level) [4] | Structure (SMILES) | decrease of the intracellular cAMP level increased by forskolin addition [1] | decrease of the intracellular cAMP level increased by forskolin addition [2] | response (increase in the intracellular calcium level) [5]
specifically responsive | specifically responsive | NCCC(=O)O [β-alanine] | dose-dependent and specific decrease | dose-dependent and specific decrease | such response was not observed
– | – | NCCC(=O)N[C@@H](Cc1cnc[nH]1)C(=O)O [L-carnosine] | dose-dependent and specific decrease | dose-dependent and specific decrease | –
